Measured values published in PubChem BioAssay (NCI).
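Dose response: 5 concentrations. Exposure: 48 h. Format: 96-well plates. Endpoint: linear interpolation; highest concentration if not reached. TGI is the concentration that stops growth completely.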

Legend:
Assay in all cases: NCI tumour cell line growth inhibition, 48 h
HCT-116 colon = test system: HCT-116 colon
786-0 renal = test system: 786-0 renal
OVCAR-5 ovarian = test system: OVCAR-5 ovarian
RXF-631 renal = test system: RXF-631 renal
K-562 leukemia = test system: K-562 leukemia
DLD-1 colon = test system: DLD-1 colon
COLO 205 colon = test system: COLO 205 colon
SF-295 CNS = test system: SF-295 CNS
M19-MEL melanoma = test system: M19-MEL melanoma
HOP-62 NSCLC = test system: HOP-62 NSCLC
SR leukemia = test system: SR leukemia
OVCAR-8 ovarian = test system: OVCAR-8 ovarian
U251 CNS = test system: U251 CNS
NCI-H460 lung = test system: NCI-H460 lung
HL-60(TB) leukemia = test system: HL-60(TB) leukemia
UO-31 renal = test system: UO-31 renal
RPMI-8226 leukemia = test system: RPMI-8226 leukemia
KM12 colon = test system: KM12 colon
EKVX NSCLC = test system: EKVX NSCLC
RXF 393 renal = test system: RXF 393 renal
NCI-H23 lung = test system: NCI-H23 lung
IGROV1 ovarian = test system: IGROV1 ovarian
HCC-2998 colon = test system: HCC-2998 colon
OVCAR-4 ovarian = test system: OVCAR-4 ovarian
CAKI-1 renal = test system: CAKI-1 renal
LXFL 529 NSCLC = test system: LXFL 529 NSCLC
A549 NSCLC = test system: A549 NSCLC
ACHN renal = test system: ACHN renal
SF-539 CNS = test system: SF-539 CNS
NCI-H226 lung = test system: NCI-H226 lung
HCT-15 colon = test system: HCT-15 colon
SW-620 colon = test system: SW-620 colon
MALME-3M melanoma = test system: MALME-3M melanoma
SK-MEL-2 melanoma = test system: SK-MEL-2 melanoma
SNB-19 CNS = test system: SNB-19 CNS
SK-MEL-28 melanoma = test system: SK-MEL-28 melanoma
OVCAR-3 ovarian = test system: OVCAR-3 ovarian
SK-OV-3 ovarian = test system: SK-OV-3 ovarian
MOLT-4 leukemia = test system: MOLT-4 leukemia
HT29 colon = test system: HT29 colon
SN12C renal = test system: SN12C renal
TK-10 renal = test system: TK-10 renal
UACC-257 melanoma = test system: UACC-257 melanoma
CCRF-CEM leukemia = test system: CCRF-CEM leukemia
SNB-75 CNS = test system: SNB-75 CNS
LOX IMVI melanoma = test system: LOX IMVI melanoma
SF-268 CNS = test system: SF-268 CNS
KM20L2 colon = test system: KM20L2 colon
DMS 273 small cell lung = test system: DMS 273 small cell lung
HOP-92 NSCLC = test system: HOP-92 NSCLC
M14 melanoma = test system: M14 melanoma
NCI-H522 lung = test system: NCI-H522 lung
SNB-78 CNS = test system: SNB-78 CNS
XF 498 CNS = test system: XF 498 CNS
UACC-62 melanoma = test system: UACC-62 melanoma
DMS 114 small cell lung = test system: DMS 114 small cell lung
SK-MEL-5 melanoma = test system: SK-MEL-5 melanoma
HOP-18 NSCLC = test system: HOP-18 NSCLC
A498 renal = test system: A498 renal

Measured: TGI

O=C(CO[N+](=O)[O-])OCC(=O)c1ccccc1
> 100 µM: HCT-116 colon | 786-0 renal | OVCAR-5 ovarian | RXF-631 renal | K-562 leukemia | DLD-1 colon | COLO 205 colon | SF-295 CNS | M19-MEL melanoma | HOP-62 NSCLC | SR leukemia | OVCAR-8 ovarian | U251 CNS | NCI-H460 lung | HL-60(TB) leukemia | UO-31 renal | RPMI-8226 leukemia | KM12 colon | EKVX NSCLC | RXF 393 renal | NCI-H23 lung | IGROV1 ovarian | HCC-2998 colon | OVCAR-4 ovarian | CAKI-1 renal | LXFL 529 NSCLC | A549 NSCLC | ACHN renal | SF-539 CNS | NCI-H226 lung | HCT-15 colon | SW-620 colon | MALME-3M melanoma | SK-MEL-2 melanoma | SNB-19 CNS | SK-MEL-28 melanoma | OVCAR-3 ovarian | SK-OV-3 ovarian | MOLT-4 leukemia | HT29 colon | SN12C renal | TK-10 renal | UACC-257 melanoma | CCRF-CEM leukemia | SNB-75 CNS | LOX IMVI melanoma | SF-268 CNS | KM20L2 colon | DMS 273 small cell lung | HOP-92 NSCLC | M14 melanoma | NCI-H522 lung

CCCNc1ncnc2c1cnn2C
> 100 µM: HCT-116 colon | 786-0 renal | OVCAR-5 ovarian | K-562 leukemia | COLO 205 colon | SF-295 CNS | M19-MEL melanoma | HOP-62 NSCLC | SR leukemia | OVCAR-8 ovarian | U251 CNS | NCI-H460 lung | HL-60(TB) leukemia | RPMI-8226 leukemia | KM12 colon | NCI-H23 lung | IGROV1 ovarian | HCC-2998 colon | SNB-78 CNS | OVCAR-4 ovarian | XF 498 CNS | CAKI-1 renal | A549 NSCLC | ACHN renal | SF-539 CNS | NCI-H226 lung | UACC-62 melanoma | HCT-15 colon | SW-620 colon | MALME-3M melanoma | SK-MEL-2 melanoma | SNB-19 CNS | SK-MEL-28 melanoma | OVCAR-3 ovarian | SK-OV-3 ovarian | MOLT-4 leukemia | DMS 114 small cell lung | HT29 colon | SN12C renal | TK-10 renal | SK-MEL-5 melanoma | UACC-257 melanoma | HOP-18 NSCLC | A498 renal | CCRF-CEM leukemia | SNB-75 CNS | LOX IMVI melanoma | SF-268 CNS | KM20L2 colon | DMS 273 small cell lung | HOP-92 NSCLC | M14 melanoma | NCI-H522 lung

NC(=O)NC(=O)C1CCC(=O)N1S(=O)(=O)c1ccc(Cl)cc1 (stereo not drawn)
> 100 µM: HCT-116 colon | 786-0 renal | RXF-631 renal | K-562 leukemia | DLD-1 colon | COLO 205 colon | SF-295 CNS | M19-MEL melanoma | HOP-62 NSCLC | SR leukemia | OVCAR-8 ovarian | U251 CNS | NCI-H460 lung | HL-60(TB) leukemia | UO-31 renal | RPMI-8226 leukemia | KM12 colon | EKVX NSCLC | RXF 393 renal | NCI-H23 lung | IGROV1 ovarian | OVCAR-4 ovarian | XF 498 CNS | CAKI-1 renal | LXFL 529 NSCLC | A549 NSCLC | ACHN renal | SF-539 CNS | NCI-H226 lung | UACC-62 melanoma | HCT-15 colon | SW-620 colon | MALME-3M melanoma | SK-MEL-2 melanoma | SNB-19 CNS | SK-MEL-28 melanoma | OVCAR-3 ovarian | SK-OV-3 ovarian | MOLT-4 leukemia | DMS 114 small cell lung | HT29 colon | SN12C renal | TK-10 renal | SK-MEL-5 melanoma | UACC-257 melanoma | HOP-18 NSCLC | CCRF-CEM leukemia | SNB-75 CNS | SF-268 CNS | KM20L2 colon | HOP-92 NSCLC | M14 melanoma | NCI-H522 lung
